# In patent EP4624465A1, “COMPOUND SERVING AS DDR1 KINASE INHIBITOR, AND MEDICINE” (Nippon Shinyaku Co., Ltd., priority 2022, dated 2024):
# Structures can show the parent of a compound that is named as a salt.
# Molecular target: DDR1 kinase (Homo sapiens, UniProt Q08345)
# Assay: Evaluation of DDR1 kinase inhibition (LANCE Ultra TR-FRET kinase assay)
# Format: biochemical
# Parameters: purchased Carna Biosciences 08-113
# Settings: DDR1 protein 0.5 nM, LANCE Ultra ULight-poly GAT substrate, 2 hours at room temperature, duplicate; read-out: DDR-1 IC50
# Sequence of DDR1 kinase (Q08345 19-876 isoform Q08345-2 limits assumed): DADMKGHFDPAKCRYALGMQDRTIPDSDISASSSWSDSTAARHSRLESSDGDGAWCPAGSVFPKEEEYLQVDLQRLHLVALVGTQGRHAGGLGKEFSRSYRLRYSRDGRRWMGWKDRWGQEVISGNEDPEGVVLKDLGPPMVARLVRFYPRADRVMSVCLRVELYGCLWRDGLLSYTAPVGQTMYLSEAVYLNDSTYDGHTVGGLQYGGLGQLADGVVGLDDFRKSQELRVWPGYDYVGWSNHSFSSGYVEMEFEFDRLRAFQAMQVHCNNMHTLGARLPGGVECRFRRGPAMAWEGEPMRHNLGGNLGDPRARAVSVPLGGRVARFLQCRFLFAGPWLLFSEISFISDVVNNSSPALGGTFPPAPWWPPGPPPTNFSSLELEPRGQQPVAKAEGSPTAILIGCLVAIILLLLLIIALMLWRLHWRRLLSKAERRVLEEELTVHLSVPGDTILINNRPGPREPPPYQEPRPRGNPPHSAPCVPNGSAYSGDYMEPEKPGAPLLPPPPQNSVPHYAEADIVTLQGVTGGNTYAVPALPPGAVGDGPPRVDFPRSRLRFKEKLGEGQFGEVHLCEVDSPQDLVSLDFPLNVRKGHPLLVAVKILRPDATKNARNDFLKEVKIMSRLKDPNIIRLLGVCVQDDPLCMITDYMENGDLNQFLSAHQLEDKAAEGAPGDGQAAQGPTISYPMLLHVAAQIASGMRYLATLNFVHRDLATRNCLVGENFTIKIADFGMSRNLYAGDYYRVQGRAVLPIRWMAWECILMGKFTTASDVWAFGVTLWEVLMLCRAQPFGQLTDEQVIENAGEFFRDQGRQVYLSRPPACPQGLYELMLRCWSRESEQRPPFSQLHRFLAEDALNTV
row,IC50 [nM],SMILES
1,14,"CC(C(=O)N1CCC[C@H]1C(F)(F)F)n1nc(C2CN(C(=O)c3ccnc(N)c3)C2)c2c(F)cc(F)cc21 (stereo partly drawn) [Compound E-103, 2-{3-[1-(2-aminopyridine-4-carbonyl)azetidin-3-yl]-4,6-difluoro-1H-indazol-1-yl}-1-[(2S)-2-(trifluoromethyl)pyrrolidin-1-yl}propane-1-one hydrochloride]"
2,160,"Nc1cc(C(=O)N2CC(c3nn(CC(=O)N4CCC[C@H]4CO)c4ccccc34)C2)ccn1 [Compound E-219, 2-{3-[1-(2-aminopyridine-4-carbonyl)azetidin-3-yl]-1H-indazol-1-yl]-1-[(2S)-2-(hydroxymethyl)pyrrolidin-1-yl]ethan-1-one]"
3,38,"Nc1cc(C(=O)N2CC(c3nn(CC(=O)N4CCC5(COC5)C4)c4ccccc34)C2)c(F)cn1 [Compound E-232, 2-{3-[1-(2-amino-5-fluoropyridine-4-carbonyl)azetidin-3-yl]-1H-indazol-1-yl}-1-{2-oxa-6-azaspiro[3.4]octan-6-yl}ethan-1-one]"
4,0.6,"Nc1cc(C(=O)N2CC(c3nn(CC(=O)N4CCCc5ccccc54)c4cc(F)cc(F)c34)C2)ccn1 [Compound E-158, 2-{3-[1-(2-aminopyridine-4-carbonyl)azetidin-3-yl]-4,6-difluoro-1H-indazol-1-yl}-1-(1,2,3,4-tetrahydroquinolin-1-yl)ethan-1-one]"
5,84,"Nc1cc(C(=O)N2CC(c3nn(Cc4nnc(-c5ccc(F)cc5)o4)c4cccc(F)c34)C2)ccn1 [Compound E-20, 4-[3-(4-fluoro-1-{[5-(4-fluorophenyl)-1,3,4-oxadiazol-2-yl]methyl}-1H-indazol-3-yl)azetidine-1-carbonyl]pyridin-2-amine]"
6,54,"Cc1cc2c(C3CN(C(=O)c4ccnc(N)c4C)C3)nn(CC(=O)N3CCO[C@@H](C(F)(F)F)C3)c2cn1 [Compound E-178, 2-{3-[1-(2-amino-3-methylpyridine-4-carbonyl)azetidin-3-yl]-5-methyl-1H-pyrazolol3,4-clpyridin-1-yl}-1-[(2R)-2-(trifluoromethyl)morpholin-4-yl]ethan-1-one dihydrochloride]"
7,13,"Nc1cc(C(=O)N2CC(c3nn(Cc4noc(C(F)(F)F)n4)c4cccc(F)c34)C2)ccn1 [Compound E-216, 4-[3-(4-fluoro-1-([5-(trifluoromethyl)-1,2,4-oxadiazol-3-yl]methyl)-1H-indazol-3-yl)azetidine-1-carbonyl]pyridin-2-amine]"
8,11,"CC1(C)CCCN1C(=O)Cn1nc(C2CN(C(=O)c3ccnc(N)c3)C2)c2c(F)cc(F)cc21 [Compound E-127, 2-{3-[1-(2-aminopyridine-4-carbonyl)azetidin-3-yl]-4,6-difluoro-1H-indazol-1-yl}-1-(2,2-dimethylpyrrolidin-1-yl)ethan-1-one]"
9,6.9,"CN(CC(F)(F)F)C(=O)Cn1nc(C2CN(C(=O)c3nc(N)ncc3F)C2)c2cc(F)ccc21 [Compound E-278, 2-{3-[1-(2-amino-5-fluoropyrimidine-4-carbonyl)azetidin-3-yl]-5-fluoro-1H-indazol-1-yl}-N-methyl-N-(2,2,2-trifluoroethyl)acetamide]"
10,1.1,"Nc1cc(C(=O)N2CCC(c3nn(CC(=O)N4CCC[C@H]4C(F)(F)F)c4cccc(F)c34)CC2)c(F)cn1 [Compound E-174, 2-{3-[1-(2-amino-5-fluoropyridine-4-carbonyl)piperidin-4-yl]-4-fluoro-1H-indazol-1-yl}-1-[(2S)-2-(trifluoromethyl)pyrrolidin-1-yl]ethan-1-one]"
11,31,"CC(C)(C)NC(=O)Cn1nc(C2CN(C(=O)c3ccnc(N)c3)C2)c2ccccc21 [Compound E-198, 2-{3-[1-(2-aminopyridine-4-carbonyl)azetidin-3-yl]-1H-indazol-1-yl}-N-tert-butylacetamide]"
12,4.5,"C[C@@H]1CCC[C@H](C)N1C(=O)Cn1nc(C2CN(C(=O)c3cc(N)ncc3F)C2)c2ccccc21 [Compound E-266, 2·{3-[1-(2-amino-5-fluoropyridine-4-carbonyl)azetidin-3-yl]-1H-indazol-1-yl}-1-[(2R,68)-2,6-dimethylpiperidin-1-yl]ethan-1-one]"
13,90,"Nc1cc(C(=O)N2CC(c3nn(CC#Cc4ccccc4)c4cc(F)cc(F)c34)C2)ccn1 [Compound E-152, 4-{3-[4,6-difluoro-1-(3-phenylprop-2-yn-1-yl)-1H-indazol-3-yl]azetidine-1-carbonyl)pyridin-2-amine]"
14,3.9,"CN(C(=O)Cn1nc(C2CN(C(=O)c3cc(N)ncc3F)C2)c2ccccc21)C(C)(C)C [Compound E-268, 2-{3-[1-(2-amino-5-fluoropyridine-4-carbonyl)azetidin-3-yl]-1H-indazol-1-yl}-N-tert-butyl-N-methylacetamide]"
15,0.6,"CC1(C)COCCN1C(=O)Cn1nc(C2CN(C(=O)c3cc(N)ncc3F)C2)c2ccccc21 [Compound E-187, 2-{3-[1-(2-amino-5-fluoropyridine-4-carbonyl)azetidin-3-yl]-1H-indazol-1-yl}-1-(3,3-dimethylmorpholin-4-yl)ethan-1-one]"
16,140,"Nc1cc(C(=O)N2CC(c3nn(Cc4noc(-c5ccccc5F)n4)c4cncc(F)c34)C2)ccn1 [Compound E-160, 4-[3-(4-fluoro-1-{[5-(2-fluorophenyl)-1,2,4-oxadiazol-3-yl]methyl}-1H-pyrazolo[3,4-c]pyridin-3-yl)azetidine-1-carbonyl]pyridin-2-amine]"

row,IC50 [nM],SMILES
1,50,"Nc1cc(C(=O)N2CC(c3nn(Cc4nc(-c5ccncc5)no4)c4cccc(F)c34)C2)ccn1 [Compound E-138, 4-[3-(4-fluoro-1-{(S-(pyridin-4-yl)-1,2,4-oxadiazol-5-yl]methyl}-1H-indazol-3-yl)azetidine-1-carbonyl]pyridin-2-amine]"
2,1.6,"Nc1cc(C(=O)N2CC(c3nn(CC(=O)N4CCO[C@@H](C(F)(F)F)C4)c4ccc(Cl)cc34)C2)ccn1 [Compound E-205, 2-{3-[1-(2-aminopyridine-4-carbonyl)azetidin-3-yl]-5-chloro-1H-indazol-1-yl}-1-[(2R)-2-(trifluoromethyl)morpholin-4-yl]ethan-1-one]"
3,0.3,"Nc1cc(C(=O)N2CCC(c3cn(CC(=O)N4CCC[C@H]4C(F)(F)F)c4cccc(F)c34)CC2)c(F)cn1 [Compound E-10, 2-{3-[1-(2-amino-5-fluoropyridine-4-carbonyl)piperidin-4-yl]-4-fluoro-1H-indol-1-yl}-1-[(2S)-2-(trifluoromethyl)pyrrolidin-1-yl]ethan-1-one]"
4,60,Nc1cc(C(=O)N2CC(c3nn(CC(=O)N4CCC[C@H]4C(F)(F)F)c4cccnc34)C2)ccn1 [Compound E-120]
5,240,CN1CCN(C(=O)Cn2nc(C3CN(C(=O)c4cc(N)ncc4F)C3)c3ccccc32)CC1 [Compound E-260]
6,270,"Cc1ccc(-c2nc(Cn3nc(C4CN(C(=O)c5ccnc(N)c5)C4)c4c(F)cccc43)no2)nn1 [Compound E-154, 4-[3-(4-fluoro-1-{[5-(6-methylpyridazin-3-yl)-1,2.4-oxadiazol-3-yl}methyl}-1H-indazol-3-yl)azetidine-1-carbony1]pyridin-2-amine]"
7,2.9,"COC[C@@H]1CCCN1C(=O)Cn1nc(C2CN(C(=O)c3cc(N)ncc3F)C2)c2c(F)cc(F)cc21 [Compound E-179, 2-{3-[1-(2-amino-5-fluoropyridine-4-carbonyl)azetidin-3-yl]-4,6-difluoro-1H-indazol-1-yl}-1-f(2S)-2-(methoxymethyl)pyrrolidin-1-yllethan-1-one]"
8,18,"Nc1cc(C(=O)N2CC(c3nn(CC(=O)NC(C4CC4)C4CC4)c4ccccc34)C2)ccn1 [Compound E-224, 2-{3-[1-(2-aminopyridine-4-carbonyl)azetidin-3-yl]-1H-indazol-1-yl}-N-(dicyclopropylmethyl)acetamide]"
9,1.5,"Nc1cc(C(=O)N2CC(c3nn(CC(=O)N4CCO[C@@H](C(F)(F)F)C4)c4ccccc34)C2)ccn1 [Compound E-193, 2-{3-[1-(2-aminopyridine-4-carbonyl)azetidin-3-yl]-1H-indazol-1-yl}-1-[(2R)-2-(trifluoromethyl)morpholin-4-yl]ethan-1-one]"
10,170,CN(CCN1CCOCC1)C(=O)Cn1nc(C2CN(C(=O)c3cc(N)ncc3F)C2)c2ccccc21 [Compound E-264]
11,1.7,"Cc1ccc2c(c1)c(C1CN(C(=O)c3cc(N)ncc3F)C1)nn2CC(=O)N1CCC[C@H]1C(F)(F)F [Compound E-201, 2-{3-[1-(2-amino-5-fluoropyridine-4-carbonyl)azetidin-3-yl]-5-methyl-1H-indazol-1-yl}-1-[(28)-2-(trifluoromethyl)pyrrolidin-1-yl]ethan-1-one]"
12,5,O=C(c1ccc2[nH]ncc2n1)N1CC(c2nn(CC(=O)N3CCC[C@H]3C(F)(F)F)c3cc(F)cc(F)c23)C1 [Compound E-141]
13,4.1,"O=C(c1ccncc1Cl)N1CC(c2nn(CC(=O)N3CCC[C@H]3C(F)(F)F)c3cc(F)cc(F)c23)C1 [Compound E-143, 2-{3-[1-(3-chloropyridine-4-carbonyl)azetidin-3-yl]-4,6-difluoro-1H-indazol-1-yl}-1-[(28)-2-(trifluoromethyl)pyrrolidin-1-yl]ethan-1-one]"
14,140,"Nc1cc(C(=O)N2CC(c3nn(CC4CCC(F)(F)CC4)c4cc(F)cc(F)c34)C2)ccn1 [Compound E-57, 4-(3-{1-[(4,4-difluorocyclohexyl)methyl]-4,6-difluoro-1H-indazol-3-yl}azetidine-1-carbonyl)pyridin-2-amine]"
15,140,"Nc1cc(C(=O)N2CC(c3nn(Cc4noc(-c5ccc(F)cn5)n4)c4cccc(F)c34)C2)ccn1 [Compound E-153, 4-{3-(4-fluoro-1-{[5-(5-fluoropyridin-2-yl)-1,2,4-oxadiazol-3-yl]methyl}-1H-indazol-3-yl)azetidine-1-carbonyl]pyridin-2-amine]"
16,150,Cc1c(C(=O)N2CC(c3nn(CC(=O)N4CCC[C@H]4C(F)(F)F)c4ccnc(C)c34)C2)ccnc1N [Compound E-94]
